Source: patent publication US11434222B2, “MAGL inhibitors” (H. LUNDBECK A/S, priority 2020, dated 2022)
Like-named read-outs stand apart in the source and are kept apart here.

What was measured:
[1] = In vitro human hepatocyte stability; assay type: in vitro ADME; settings: cryopreserved human hepatocytes (pooled donor), human hepatocytes 0.5×10^6 cells/mL, read-out: Scaled-up unbound CLint
Procedure: The metabolic stability of test articles (1 μM) in commercially sourced, pooled donor, cryopreserved human hepatocytes (0.5×10^6 cells/mL) was determined in duplicate. The CLint reactions (250 μL) were initiated by addition of test compound. Aliquots (25 μL) were taken at 0, 15, 30, 45, 60, 90, 120 and 240 minutes and then protein crashed with ice-cold acetonitrile containing internal standard then centrifuged (3220 g for 25 minutes). Supernatant was used for LC-MS/MS analysis. The in vitro half-life (in vitro t1/2) was determined from the slope value: in vitro t1/2=−0.693/k. Conversion of the in vitro t1/2 (in min) into the scale-up unbound intrinsic clearance (Scaled-up unbound CLint, in mL/min/kg) was done using the following equation (mean of duplicate determinations), with data shown in Table 5: Scaled-up unbound CLint=kV/N×scaling factor. V=incubation volume (0.25 mL); N=number of hepatocytes per well ([…]). Scaling factors for in vivo intrinsic clearance prediction are listed below: […]

[2] = Kinetic solubility in PBS; assay type: physicochemical; settings: aqueous buffer, kinetic from dmso stock
Procedure: The kinetic solubility of test articles was determined in PBS at pH 2.0 and pH 7.4 in duplicate. A stock solution of test compound in DMSO (10 mM) was incubated at RT for 2 hours with shaking at 1,100 RPM. The sample was then filtered using a vacuum manifold, diluted, and analyzed by LC-MS/MS. Chromatographic conditions: Phenomenex Synergi 4μ Hydro-PR 80A column (2.0×30 mm) coupled with pre-guard column; mobile phase=0.1% formic acid in acetonitrile and 0.1% formic acid in water; flowrate=0.65 mL/min; column temperature=40° C.; injection volume: 3 μL.
Mass conditions: Turbo spray ion source; ESI ionization model; MRM scan type; Collison gas=6 L/min; Curtain gas=30 L/min; Nebulize gas=50 L/min; Auxiliary gas=50 L/min; Temperature=500 degrees C.; Ion spray voltage=+5500 v (positive MRM).
The filtered solution was analyzed and quantified against a standard of known concentration in DMSO using UPLC coupled with mass spectral peak identification and quantitation. Solubility values of the test articles were calculated using Microsoft Excel as follows (DF is the dilution factor): […]

MAGL [3] = molecular target: T1, MAGL (Mus musculus, UniProt O35678); test: In vivo MAGL inhibition in mouse brain proteomes after oral gavage; settings: 5 mg/kg oral gavage, 4 h after administration, read-out: MAGL % inh. 5 mg/kg (mouse)
T1 construct: brain proteomes were prepared and analyzed according to previously established methods; from tissue; host or cells: brain of wild-type C57Bl/6J mice
T1 sequence (O35678 1-303): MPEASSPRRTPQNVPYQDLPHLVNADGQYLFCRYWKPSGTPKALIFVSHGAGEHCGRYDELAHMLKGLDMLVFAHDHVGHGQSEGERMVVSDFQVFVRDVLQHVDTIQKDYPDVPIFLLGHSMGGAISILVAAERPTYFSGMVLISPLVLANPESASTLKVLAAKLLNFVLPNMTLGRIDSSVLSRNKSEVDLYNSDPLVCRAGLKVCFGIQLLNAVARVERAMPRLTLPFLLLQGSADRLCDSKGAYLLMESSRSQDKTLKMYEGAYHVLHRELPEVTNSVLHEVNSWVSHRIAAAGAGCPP
Procedure: Inhibitors were administered to wild-type C57B1/6J by oral gavage in a vehicle of polyethylene glycol. Each animal was sacrificed 4 h following administration and brain proteomes were prepared and analyzed according to previously established methods (See Niphakis, M. J., et al. (2011) ACS Chem. Neurosci. and Long, J. Z., et al. Nat. Chem. Biol. 5:37-44).

MAGL [4] = molecular target: T2, MAGL (Homo sapiens, UniProt Q99685); test: In vitro competitive activity-based protein profiling (PC3 human cell membrane proteomes); assay type: biochemical
T2 construct: PC3 human cell membrane proteomes; endogenous in cells; host or cells: PC3 human cells (membrane proteome)
T2 sequence (Q99685 1-303): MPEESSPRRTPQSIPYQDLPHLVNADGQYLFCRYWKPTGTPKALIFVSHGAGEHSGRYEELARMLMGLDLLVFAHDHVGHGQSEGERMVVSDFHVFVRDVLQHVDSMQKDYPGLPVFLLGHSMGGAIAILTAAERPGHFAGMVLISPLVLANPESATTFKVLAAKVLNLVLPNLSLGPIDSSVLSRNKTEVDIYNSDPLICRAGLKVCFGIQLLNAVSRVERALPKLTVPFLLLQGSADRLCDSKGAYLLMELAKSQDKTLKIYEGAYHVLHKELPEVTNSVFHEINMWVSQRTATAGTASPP
Procedure: PC3 human cell membrane proteomes (50 µL, 2.0 mg/mL total protein concentration) were preincubated with varying concentrations of inhibitors at 37° C. After 30 min, the ABPP probe JW912-Bodipy (1.0 µL, 50 µM in DMSO) was added and the mixture was incubated for 30 min at room temperature. Reactions were quenched with SDS loading buffer (15 μL-4×) and run on SDS-PAGE. Following gel imaging, serine hydrolase activity was determined by measuring fluorescent intensity of gel bands corresponding to MAGL using ImageJ 1.43u software. Intensities were converted to percent enzyme activity by normalizing to DMSO controls. IC50 values were determined by fitting percent enzyme activities to a non-linear regression, 4-parameter, sigmoidal dose response function in Prism GraphPad.

[5] = PBS pH 7.4, RT, read-out: pH 7.4 Solubility (kinetic)

| inhibition at 5 mg/kg (MAGL [3]) [%] | Structure (SMILES) | CLint scaled at 1 μM [1] [mL/min/kg] | solubility kinetic at 2 h [2, 5] [µM] | also measured |
| --- | --- | --- | --- | --- |
|  | O=C(Nc1ccc(-n2cccn2)nc1)C1CC12CCN(C(=O)OC(C(F)(F)F)C(F)(F)F)CC2 (single isomer, unassigned) [Example 29, 1,1,1,3,3,3-hexafluoropropan-2-yl (R or S)-1-((6-(1H-pyrazol-1-yl)pyridin-3-yl)carbamoyl)-6-azaspiro[2.5]octane-6-carboxylate] | 32.7 | 8.63 |  |
| 0 | COc1ccc(NC(=O)[C@@H]2CC23CCN(C(=O)OC(C(F)(F)F)C(F)(F)F)CC3)cn1 (single isomer, unassigned) [Example 36] |  |  |  |
| 25 | COc1ccc(NC(=O)[C@H]2CC23CCN(C(=O)OC(C(F)(F)F)C(F)(F)F)CC3)cn1 (single isomer, unassigned) [Example 37] |  |  |  |
|  | O=C(OC(C(F)(F)F)C(F)(F)F)N1CCC2(CC1)CC2C(=O)N1CCc2ncncc2C1 (single isomer, unassigned) [Example 60, 1,1,1,3,3,3-hexafluoropropan-2-yl (R or S)-1-(5,6,7,8-tetrahydropyrido[4,3-d]pyrimidine-6-carbonyl)-6-azaspiro[2.5]octane-6-carboxylate] |  | 259 | MAGL % inh. 1 µM (human PC3) (MAGL [4]): 100% |
|  | O=C(NCc1cccc(C(F)(F)F)n1)C1CC12CCN(C(=O)OC(C(F)(F)F)C(F)(F)F)CC2 (single isomer, unassigned) [Example 76, 1,1,1,3,3,3-hexafluoropropan-2-yl (R or S)-1-(((6-(trifluoromethyl)pyridin-2-yl)methyl)carbamoyl)-6-azaspiro[2.5]octane-6-carboxylate] |  | 1.33 | MAGL % inh. 1 µM (human PC3) (MAGL [4]): 100% |
|  | O=C(Nc1ccc(C(F)(F)F)nc1)C1CC12CCN(C(=O)OC(C(F)(F)F)C(F)(F)F)CC2 (single isomer, unassigned) [Example 78, 1,1,1,3,3,3-hexafluoropropan-2-yl (R or S)-1-((6-(trifluoromethyl)pyridin-3-yl)carbamoyl)-6-azaspiro[2.5]octane-6-carboxylate] |  | 12.6 | MAGL % inh. 1 µM (human PC3) (MAGL [4]): 100%; solubility kinetic at 2 h ([2]; PBS pH 2.0, RT, read-out: pH 2 Solubility (kinetic)): 17 µM |
|  | O=C(Nc1cnc(C(F)(F)F)nc1)C1CC12CCN(C(=O)OC(C(F)(F)F)C(F)(F)F)CC2 (single isomer, unassigned) [Example 99, 1,1,1,3,3,3-hexafluoropropan-2-yl (R or S)-1-((2-(trifluoromethyl)pyrimidin-5-yl)carbamoyl)-6-azaspiro[2.5]octane-6-carboxylate] |  | 28.5 | MAGL % inh. 1 µM (human PC3) (MAGL [4]): 100% |
| 50 | Cc1ncc(NC(=O)C2CC23CCN(C(=O)OC(C(F)(F)F)C(F)(F)F)CC3)cn1 (single isomer, unassigned) [Example 103, 1,1,1,3,3,3-hexafluoropropan-2-yl (R or S)-1-((2-methylpyrimidin-5-yl)carbamoyl)-6-azaspiro[2.5]octane-6-carboxylate] |  |  |  |
| 0 | Cc1ccc(NC(=O)[C@H]2CC23CCN(C(=O)OC(C(F)(F)F)C(F)(F)F)CC3)nn1 (single isomer, unassigned) [Example 106] |  |  |  |
| 75 | O=C(Nc1ccnnc1)C1CC12CCN(C(=O)OC(C(F)(F)F)C(F)(F)F)CC2 (single isomer, unassigned) [Example 108, 1,1,1,3,3,3-hexafluoropropan-2-yl (R or S)-1-(pyridazin-4-ylcarbamoyl)-6-azaspiro[2.5]octane-6-carboxylate] |  |  |  |
|  | O=C(NCc1ccccc1)[C@H]1CC12CCN(C(=O)OC(C(F)(F)F)C(F)(F)F)CC2 (single isomer, unassigned) [Example 150] | 88.8 |  |  |
|  | CC1(CNC(=O)C2CC23CCN(C(=O)OC(C(F)(F)F)C(F)(F)F)CC3)CCOCC1 (single isomer, unassigned) [Example 168, 1,1,1,3,3,3-hexafluoropropan-2-yl (R or S)-1-(((4-methyltetrahydro-2H-pyran-4-yl)methyl)carbamoyl)-6-azaspiro[2.5]octane-6-carboxylate] | 61.4 |  |  |
|  | CS(=O)(=O)Nc1ccc(NC(=O)C2CC23CCN(C(=O)OC(C(F)(F)F)C(F)(F)F)CC3)cn1 (single isomer, unassigned) [Example 181, 1,1,1,3,3,3-hexafluoropropan-2-yl (R or S)-1-((6-(methylsulfonamido)pyridin-3-yl)carbamoyl)-6-azaspiro[2.5]octane-6-carboxylate] | 1.94 | 296 |  |
| 0 | O=C(Nc1cccnn1)[C@@H]1CC12CCN(C(=O)OC(C(F)(F)F)C(F)(F)F)CC2 [Example 5, 1,1,1,3,3,3-Hexafluoropropan-2-yl (R)-1-(pyridazin-3-ylcarbamoyl)-6-azaspiro[2.5]octane-6-carboxylate] |  |  |  |

| Structure (SMILES) | inhibition at 5 mg/kg (MAGL [3]) [%] | CLint scaled at 1 μM [1] [mL/min/kg] | solubility kinetic at 2 h [2, 5] [µM] | also measured |
| --- | --- | --- | --- | --- |
| CN(C(=O)C1CC12CCN(C(=O)OC(C(F)(F)F)C(F)(F)F)CC2)c1cccnc1 (single isomer, unassigned) [Example 43, 1,1,1,3,3,3-hexafluoropropan-2-yl (R or S)-1-(methyl(pyridin-3-yl)carbamoyl)-6-azaspiro[2.5]octane-6-carboxylate] | 100 |  | 233 | MAGL % inh. 1 µM (human PC3) (MAGL [4]): 100% |
| Cc1ccc(NC(=O)C2CC23CCN(C(=O)OC(C(F)(F)F)C(F)(F)F)CC3)cn1 (single isomer, unassigned) [Example 81, 1,1,1,3,3,3-hexafluoropropan-2-yl (R or S)-1-((6-methylpyridin-3-yl)carbamoyl)-6-azaspiro[2.5]octane-6-carboxylate] | 25 |  | 130 |  |
| O=C(Nc1cncs1)C1CC12CCN(C(=O)OC(C(F)(F)F)C(F)(F)F)CC2 (single isomer, unassigned) [Example 129, 1,1,1,3,3,3-hexafluoropropan-2-yl (R or S)-1-(thiazol-5-ylcarbamoyl)-6-azaspiro[2.5]octane-6-carboxylate] | 50 | 53.6 |  |  |
| CC1(NC(=O)C2CC23CCN(C(=O)OC(C(F)(F)F)C(F)(F)F)CC3)CCOCC1 (single isomer, unassigned) [Example 132, 1,1,1,3,3,3-hexafluoropropan-2-yl (R or S)-1-((4-methyltetrahydro-2H-pyran-4-yl)carbamoyl)-6-azaspiro[2.5]octane-6-carboxylate] | 100 | 44.2 |  |  |
